Usually inhibition stands for the change of the read-out against control, counted positive when it falls.

Data set [1] is described as follows: Solubility in aqueous solutions. In kind it is physicochemical. As to conditions: comparative.
The test system of another data set is MMP-2. Briefly: Diabetic rat, gingiva gelatinase by gelatin zymography (MMP-2). In kind it is in vivo. The note with it: diabetic rats, oral daily, 3 weeks. As to the method: At the end of the treatment protocol, the rats were sacrificed, blood samples were collected, and whole skin (except over limbs) and qingiva were dissected (the skin, because of ample quantities of tissue were analyzed for each rat separately; the gingiva, because of the tiny amounts that could be harvested per rat, were pooled for each experimental group, as prescribed previously for tetracycline studies (30). In addition, the jaw bones were collected, defleshed, and bone loss around the teeth analyzed morphometrically as described previously (42, 43).
This appearance of MMP-9 only in the gingiva (FIG. 10), but not the skin (FIG. 12), of the diabetic rats is likely the result of the oral bacteria inducing inflammation in the gingiva of these immune-suppressed UD rats, whereas the skin is not exposed to this onslaught of bacteria particularly the anaerobic gram-negative bacteria in the mouth that cause periodontal and gingival inflammation.

The next data set concerns human monocytes. Briefly: Cytotoxicity in human monocytes (MTS). The format is cell-based. As to the method:
Briefly, human peripheral blood monocytes (HMs) were isolated from a leukocyte concentrate by density gradient centrifugation (Lymphoprep) and the isolated HMs cultured (2 h, 37° C.) to remove non-adherent cells. […] After incubation, the proinflammatory cytokines, TNFα, […], MCP-1 and IL-6 were measured in the conditioned media by ELISA and cytotoxicity was assessed by measuring the absorbance (490 nm) of formazan produced by reduction of MTS. The HMs alone±0.1-0.5% DMSO produced minimal levels of these pro-inflammatory cytokines. However, addition of 100 ng/ml or 10 μg/ml of LPS both dramatically stimulated cytokine production.

In another data set the test system is TNF-α. Briefly: Inhibition of TNF-α production by LPS-stimulated monocytes. The format is cell-based, human. The method, then:
(§1) Briefly, human peripheral blood monocytes (HMs) were isolated from a leukocyte concentrate by density gradient centrifugation (Lymphoprep) and the isolated HMs cultured (2 h, 37° C.) to remove non-adherent cells. The adherent HMs wore cultured for 18 h (1×10^6 cells/well, 24-well plates)±endotoxin (LPS)±different compounds dissolved in DMSO (the final concentration of DMSO in the RPMI serum-free culture media with Pen./Strep. antibiotics was no greater than 0.5%). After incubation, the proinflammatory cytokines, TNFα, […], MCP-1 and IL-6 were measured in the conditioned media by ELISA and cytotoxicity was assessed by measuring the absorbance (490 nm) of formazan produced by reduction of MTS. The HMs alone±0.1-0.5% DMSO produced minimal levels of these pro-inflammatory cytokines. However, addition of 100 ng/ml or 10 μg/ml of LPS both dramatically stimulated cytokine production.
The cytokine levels were measured by Luminex multiplex, a method that allows the simultaneous measurement of different biological markers.

Data set [2] deals with MMP-9 (92 kDa gelatinase) (Rattus norvegicus (Rat), UniProt P50282). Briefly: Diabetic rat, plasma gelatinase by gelatin zymography (MMP-9). In kind it is in vivo. As to conditions: diabetic rats, 100 mg/kg oral once/day, 7 days.
Another data set relates to IL-6. Briefly: Inhibition of IL-6 production by LPS-stimulated monocytes. In kind it is cell-based. As to conditions: Homo sapiens, Monocyte, 18 h, read-out: % Inhibition of IL-6 produced by stimulated Monocytes with LPS @ 18 h. As to the method: as §1
Data set [3] has as its system PC-3 human prostate cancer cells. Briefly: MMP-9 in conditioned media of PC-3 cells, gelatin zymography and Western blot. In kind it is cell-based. As to conditions: 10 μM and 20 μM, 48 hr, serum-free. As to the method: Compound 1 was evaluated in a cell culture model of cancer. […] After the incubation, aliquots of the conditioned media were assayed for MMP-9 (gelatinase B) by either of two techniques, gelatin zymography (in the presence of 2 or 10 mMCa^++) and Western blot (both assays used purified MMP-9, 92 kDa gelatinase, as a standard).

“Also recorded” adds a separate entry of the source.

`COC(=O)C(C(=O)/C=C/c1ccc(O)c(OC)c1)C(=O)/C=C/c1ccc(O)c(OC)c1` [Compound 1, 1,7-Bis(4-hydroxy-3-methoxyphenyl)-4-methoxycarbonylhepta-1E,6E-dien-3,5-dione]: the Solubility result in data set [1] was “improved solubility; also recorded: more soluble than the insoluble natural product curcumin”. Besides, in the data set on MMP-2, the “Pro- and activated-forms of MMP-2 in gingiva” value is reported as “neither diabetes nor compound 1 appeared to have a detectable effect”. In addition, the figures for the “Cytotoxicity Monocytes @ 5 h incubation” value with human monocytes (2 uM), in the data set with human monocytes (10 uM) and in the data set with human monocytes (25 uM) were 2 uM - 0%, 10 uM - 0% and 25 uM - 33%, respectively. The results for the “Cytotoxicity Monocytes @ 18 h incubation” value in the data set on human monocytes (25 uM) and in the data set with human monocytes (50 uM) were 25 uM - 45.5% and 50 uM - 53%, respectively. For the same molecule, the “TNFα level in LPS-challenged human monocytes, Luminex multiplex” value in the data set with TNF-α (2 μM, FIG. 2) was “potent in reducing”. Also, the inhibition at 2 µM worked out at 63% with TNF-α (Homo sapiens, Monocyte, 18 h, 2 uM, read-out: % Inhibition of TNF-α produced by stimulated Monocytes with LPS @ 18 h) and 30% with IL-6 (2 uM). In addition, the inhibition at 25 µM stood at 100% in the data set with TNF-α (Homo sapiens, Monocyte, 18 h, 25 uM, read-out: % Inhibition of TNF-α produced by stimulated Monocytes with LPS @ 18 h) and 100% in the data set with IL-6 (25 uM). In addition, the inhibition at 50 µM was found to be 100% with TNF-α (Homo sapiens, Monocyte, 18 h, 50 uM, read-out: % Inhibition of TNF-α produced by stimulated Monocytes with LPS @ 18 h) and 100% in the data set with IL-6 (50 uM). Also, the “Plasma MMP-9 level” value in data set [2] is reported as “reduced the excessive levels of MMPs to essentially normal levels”. Further, the “MMP-9 production and/or activity in conditioned media” value in data set [3] is recorded as “inhibited the production and/or activity of MMP-9”.

The record behind these values is US10669227B2 (THE RESEARCH FOUNDATION OF STATE UNIVERSITY OF NEW YORK, priority 2009, dated 2020).
